In patent US20120129872A1, “FUSED HETEROARYL INHIBITORS OF PRO-MATRIX METALLOPROTEINASE ACTIVATION” (priority 2010, published 2012):
Where a name gives a salt, the structure may show the parent alone.

Columns and labels:
[1] = target: T1, full-length proMMP9(1-707) (SEQ ID NO:1), activation by catalytic MMP3 (Homo sapiens, UniProt P14780, R574P); experiment: proMMP9/MMP3 P126 Activation Assay; type: biochemical
T1 construct: made in house; host or cells: HEK293 (transient, secreted)
Procedure: proMMP9/MMP3 P126 Activation Assay
The reaction volume was 50 μL. […] Reactivity of residual MMP3 towards P-126 substrate was minimal under these conditions.

[2] = target: T2, proMMP9(67-444;ΔFnII) (SEQ ID NO:5) (Homo sapiens, UniProt P14780, DEL216-390); experiment: ThermoFluor binding assay with proMMP9(67-444;ΔFnII)
T2 construct: start methionine (N); made in house; host or cells: E. coli BL21(DE3) RIL
T2 sequence (P14780 with tags, fused parts or gaps DEL216-390): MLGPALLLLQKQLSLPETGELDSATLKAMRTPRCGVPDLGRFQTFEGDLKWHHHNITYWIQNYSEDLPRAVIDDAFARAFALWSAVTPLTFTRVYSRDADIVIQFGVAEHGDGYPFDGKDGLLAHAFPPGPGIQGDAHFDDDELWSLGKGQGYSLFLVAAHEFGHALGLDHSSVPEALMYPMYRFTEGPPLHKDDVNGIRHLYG
Procedure: (§1) The ThermoFluor® (TF) assay is a 384-well plate-based binding assay that measures thermal stability of proteins (Biomol Screen 2001, 6, 429-40; Biochemistry 2005, 44, 5258-66). The experiments were carried out using instruments available from Johnson & Johnson Pharmaceutical Research & Development, LLC. TF dye used in all experiments was […] (1,8-ANS) (Invitrogen: A-47).
(§2) Compounds were arranged in a pre-dispensed plate (Greiner Bio-one: 781280), wherein compounds were serially diluted in 100% DMSO across 11 columns within a series. Columns 12 and 24 were used as DMSO reference and contained no compound. For multiple compound concentration-response experiments, the compound aliquots ([…]) were robotically predispensed directly into black 384-well polypropylene PCR microplates (Abgene: TF-0384/k) using a Cartesian Hummingbird liquid handler (DigiLab, Holliston, Mass.). Following compound dispense, protein and dye solutions were added to achieve the final assay volume of 3 μL. The assay solutions were overlayed with 1 μL of silicone oil (Fluka, type DC 200: 85411) to prevent evaporation.
(§3) Assay plates were robotically loaded onto a thermostatically controlled PCR-type thermal block and then heated from 40 to 90° C. at a ramp-rate of 1° C./min for all experiments. Fluorescence was measured by continuous illumination with UV light (Hamamatsu LC6) supplied via fiber optics and filtered through a band-pass filter (380-400 nm; >60D cutoff). Fluorescence emission of the entire 384-well plate was detected by measuring light intensity using a CCD camera (Sensys, Roper Scientific) filtered to detect 500±25 nm, resulting in simultaneous and independent readings of all 384 wells. A single image with 20-sec exposure time was collected at each temperature, and the sum of the pixel intensity in a given area of the assay plate was recorded vs temperature and fit to standard equations to yield the Tm (J Biomol Screen 2001, 6, 429-40).
(§4) Thermodynamic parameters necessary for fitting compound binding for each proMMP were estimated by differential scanning calorimetry (DSC) and from ThermoFluor® data. The heat capacity of unfolding for each protein was estimated from the molecular weight and from ThermoFluor® dosing data.
ThermoFluor® with proMMP9(67-444;ΔFnII (SEQ ID NO:5)
The protein sample preparations had to include a desalting buffer exchange step via a PD-10 gravity column (GE Healthcare). The desalting buffer exchange was performed prior to diluting the protein to the final assay concentration of 3.5 μM proMMP9(67-444;ΔFnII) (SEQ ID NO:5). The concentration of proMMP9(67-444;ΔFnII) (SEQ ID NO:5) was determined spectrophotometrically based on a calculated extinction coefficient of ε280=33900 M^−1 cm^−1, a calculated molecular weight of 22.6 kDa, and calculated pI of 5.20. ThermoFluor® reference conditions were defined as follows: 80 μg/mL (3.5 μM) proMMP9(67-444;ΔFnII) (SEQ ID NO:5), 50 μM 1,8-ANS, pH 7.0 Buffer (50 mM HEPES pH 7.0, 100 mM NaCl, 0.001% Tween-20, 2.5 mM MgCl2, 300 μM CaCl2). The thermodynamic parameters for proMMP9(67-444;ΔFnII) (SEQ ID NO:5) are as follows: Tm (° C.)=63 (+/−0.1), ΔUH(Tm) (cal mol^−1)=105000(+/−5000), ΔUS(Tm) (cal mol^−1 K^−1)=450, ΔuCp (cal mol^−1 K^−1)=2000.

[3] = target: T3, proMMP9(20-445;ΔFnII) (SEQ ID NO:6) (Homo sapiens, UniProt P14780, DEL216-390); experiment: ThermoFluor binding assay with proMMP9(20-445;ΔFnII)
T3 construct: start methionine (N); made in house; host or cells: E. coli BL21(DE3) RIL
T3 sequence (P14780 with tags, fused parts or gaps DEL216-390): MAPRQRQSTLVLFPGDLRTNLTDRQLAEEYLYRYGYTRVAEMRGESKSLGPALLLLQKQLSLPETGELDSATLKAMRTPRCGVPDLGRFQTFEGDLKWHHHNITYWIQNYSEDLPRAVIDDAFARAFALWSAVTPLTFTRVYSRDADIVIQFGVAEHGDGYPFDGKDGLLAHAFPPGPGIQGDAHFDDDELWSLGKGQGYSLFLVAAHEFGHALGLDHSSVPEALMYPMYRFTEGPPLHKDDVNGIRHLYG
Procedure: as §1, §2, §3, §4
ThermoFluor® with proMMP9(20-445;ΔFnII (SEQ ID NO:6)
The protein sample preparations included a desalting buffer exchange step via a PD-10 gravity column (GE Healthcare). The desalting buffer exchange was performed prior to diluting the protein to the final assay concentration of 2.8 μM proMMP9(20-445;ΔFnII) (SEQ ID NO:6). The concentration of proMMP9(20-445;ΔFnII) (SEQ ID NO:6) was determined spectrophotometrically based on a calculated extinction coefficient of ε280=39880 M^−1 cm^−1, a calculated molecular weight of 28.2 kDa, and calculated pI of 5.5. ThermoFluor® reference conditions were define as follows: 80 μg/mL (2.8 μM) proMMP9(20-445;ΔFnII) (SEQ ID NO:6), 50 μM 1,8-ANS, pH 7.0 Buffer (50 mM HEPES pH 7.0, 100 mM NaCl, 0.001% Tween-20, 2.5 mM MgCl2, 300 μM CaCl2). The thermodynamic parameters for proMMP9(20-445;ΔFnII) (SEQ ID NO:6) are as follows: Tm (° C.)=72 (+/−0.1), ΔUH(Tm) (cal mol^−1)=160000(+/−5000), ΔUS(Tm) (cal mol^−1 K^−1)=434, ΔUCp (cal mol^−1 K^−1)=2400.

[4] = target: T4, proMMP13(1-268) (SEQ ID NO:7), activation by plasmin (Homo sapiens, UniProt P45452); experiment: ProMMP13/Plasmin P126 Activation Assay; type: biochemical
T4 construct: 6×-histidine tag (C); made in house; host or cells: HEK293 (transient, secreted)
Procedure: ProMMP13/Plasmin P126 Activation Assay
On the day of assay, proMMP13(1-268) (SEQ ID NO:7) purified from HEK293 cells and plasmin were diluted to 160 nM and 320 nM, respectively, in assay buffer. The reaction volume was 50 μL. […] The plate was sealed and incubated for 40 min at 37° C. […] Plasmin was not reactive towards P-126 substrate under these conditions.

[5] = target: T1, full-length proMMP9(1-707) (SEQ ID NO:1), activation by catalytic MMP3; experiment: ProMMP9/MMP3 DQ Gelatin Activation Assay; type: biochemical; conditions: read-out: ProMMP9/MMP3 DQ gel Activation Assay, IC50
From the text: ProMMP9/MMP3 DQ Gelatin Activation Assay

[6] = target: T5, proMMP13(1-268) (SEQ ID NO:7) (Homo sapiens, UniProt P45452); experiment: ThermoFluor binding assay with proMMP13(1-268)
T5 construct: 6×-histidine tag (C); made in house; host or cells: HEK293 (transient, secreted)
Procedure: as §1, §2, §3, §4
ThermoFluor® with proMMP13(1-268) (SEQ ID NO: 7)
The proMMP13(1-268) (SEQ ID NO:7) protein sample preparations included a desalting buffer exchange step via a PD-10 gravity column (GE Healthcare). The desalting buffer exchange was performed prior to diluting the protein to the final assay concentration of 3.5 μM. The concentration of proMMP13(1-268) (SEQ ID NO:7) was estimated spectrophotometrically based on a calculated extinction coefficient of ε280=37000 M^−1 cm^−1, a calculated molecular weight of 30.8 kDa, and calculated pI of 5.33. ThermoFluor® reference conditions were defined as follows: 100 μg/mL proMMP13(1-268) (SEQ ID NO:7), 25 μM 1,8-ANS, pH 7.0 Buffer (50 mM HEPES pH 7.0, 100 mM NaCl, 0.001% Tween-20, 2.5 mM MgCl2, 300 μM CaCl2). The thermodynamic parameters for proMMP13(1-268) (SEQ ID NO:7) are as follows: Tm (° C.)=67 (+/−0.1), ΔUH(Tm) (cal mol^−1)=107000(+/−5000), ΔUS(Tm) (cal mol^−1 K^−1)=318, ΔUCp (cal mol^−1 K^−1)=2600.

T1 sequence (P14780 20-707 R574P): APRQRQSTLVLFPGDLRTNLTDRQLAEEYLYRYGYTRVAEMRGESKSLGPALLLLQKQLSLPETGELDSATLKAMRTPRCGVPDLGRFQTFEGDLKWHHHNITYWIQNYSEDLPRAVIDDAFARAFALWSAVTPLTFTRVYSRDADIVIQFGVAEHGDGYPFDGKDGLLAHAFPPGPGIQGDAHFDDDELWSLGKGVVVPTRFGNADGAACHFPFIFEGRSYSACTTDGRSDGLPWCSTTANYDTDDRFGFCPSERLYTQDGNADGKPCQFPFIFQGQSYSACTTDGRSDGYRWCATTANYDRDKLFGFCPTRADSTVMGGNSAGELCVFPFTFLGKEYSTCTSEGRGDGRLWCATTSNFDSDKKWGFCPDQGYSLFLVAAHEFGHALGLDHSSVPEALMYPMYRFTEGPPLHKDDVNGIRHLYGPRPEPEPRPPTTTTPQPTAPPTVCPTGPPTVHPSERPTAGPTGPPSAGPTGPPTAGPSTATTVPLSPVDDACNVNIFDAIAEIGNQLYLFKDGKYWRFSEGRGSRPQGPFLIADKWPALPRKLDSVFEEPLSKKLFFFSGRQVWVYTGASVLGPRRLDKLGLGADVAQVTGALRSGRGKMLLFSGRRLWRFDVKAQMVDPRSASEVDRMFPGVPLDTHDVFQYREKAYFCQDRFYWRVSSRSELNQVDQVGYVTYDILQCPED

IC50 [1] | Kd [2] | Kd [3] | IC50 [4] | IC50 [5] | Kd [6] | SMILES
0.15 µM | 0.33 µM | 0.03 µM | 0.9 µM | – | – | CC(C)Oc1ccc(C(N)=O)cc1Nc1nc(-c2ccc3c(c2)ncn3C)cs1 [Example 8, 4-Isopropoxy-3-[4-(1-methyl-1H-benzoimidazol-5-yl)-thiazol-2-ylamino]-benzamide]
– | > 28 µM | > 29 µM | – | 5 µM | – | COc1ccc([N+](=O)[O-])cc1Nc1nc(-c2cnc3ccccn23)cs1 [Example 28, (4-Imidazo[1,2-a]pyridin-3-yl-thiazol-2-yl)-(2-methoxy-5-nitro-phenyl)-amine]
~7 µM | 9.8 µM | 16 µM | – | – | 13 µM | CC(C)Oc1ccc(C(N)=O)cc1Nc1nc(-c2nc3ccccc3n2C)cs1 [Example 4, 4-Isopropoxy-3-[4-(1-methyl-1H-benzoimidazol-2-yl)-thiazol-2-ylamino]-benzamide•TFA]
